Results as given in patent US20080287479A1, “INHIBITORS OF SERINE PALMITOYLTRANSFERASE” (Pfizer Inc, priority 2006, published 2008).
Where a name gives a salt, the structure may show the parent alone.

target: T1, Serine Palmitoyl Transferase (SPT); microsomes from HEK 293 cells stably transfected with human LCB2 subunit of SPT (Homo sapiens, UniProt O15270); assay: SPT flashplate assay; assay type: biochemical; conditions: SPTISF IC50 (nM)
T1 construct: expressed in transfected cells; host or cells: HEK 293 cells stably transfected with LCB2; microsomal fraction
T1 sequence (O15270 1-562): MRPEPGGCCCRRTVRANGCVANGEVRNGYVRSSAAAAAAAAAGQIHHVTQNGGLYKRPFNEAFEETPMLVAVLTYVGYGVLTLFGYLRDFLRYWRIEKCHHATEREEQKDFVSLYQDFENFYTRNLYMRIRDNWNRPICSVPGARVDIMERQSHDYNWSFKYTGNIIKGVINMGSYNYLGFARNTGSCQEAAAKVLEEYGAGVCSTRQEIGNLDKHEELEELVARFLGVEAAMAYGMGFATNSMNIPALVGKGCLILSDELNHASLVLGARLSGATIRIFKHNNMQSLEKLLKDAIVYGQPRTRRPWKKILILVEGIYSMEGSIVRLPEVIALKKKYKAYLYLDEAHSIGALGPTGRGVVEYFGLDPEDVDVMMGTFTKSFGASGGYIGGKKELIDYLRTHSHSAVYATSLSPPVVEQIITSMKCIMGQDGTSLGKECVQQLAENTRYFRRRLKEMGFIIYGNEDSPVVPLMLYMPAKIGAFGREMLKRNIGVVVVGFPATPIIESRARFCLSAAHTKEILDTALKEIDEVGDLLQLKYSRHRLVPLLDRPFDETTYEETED
T1 sequence (O15269 1-473 partner): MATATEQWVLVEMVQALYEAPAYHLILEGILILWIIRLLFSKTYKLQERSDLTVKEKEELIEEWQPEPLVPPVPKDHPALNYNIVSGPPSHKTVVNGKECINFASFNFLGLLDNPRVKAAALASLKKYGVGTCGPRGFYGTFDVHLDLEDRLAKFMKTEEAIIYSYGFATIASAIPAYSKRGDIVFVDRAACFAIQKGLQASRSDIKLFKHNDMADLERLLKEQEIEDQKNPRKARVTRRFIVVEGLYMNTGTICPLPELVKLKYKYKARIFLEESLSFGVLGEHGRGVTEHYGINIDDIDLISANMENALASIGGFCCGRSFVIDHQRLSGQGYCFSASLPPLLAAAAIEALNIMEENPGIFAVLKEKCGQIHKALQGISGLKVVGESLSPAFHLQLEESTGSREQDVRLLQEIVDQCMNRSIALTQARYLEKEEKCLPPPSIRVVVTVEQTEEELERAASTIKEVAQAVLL
T1 sequence (Q969W0 1-71 partner): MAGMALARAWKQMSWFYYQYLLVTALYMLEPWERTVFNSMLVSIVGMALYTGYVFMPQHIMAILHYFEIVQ

Going from `CCc1ccc(C(=O)CN2CCC(n3c(=O)[nH]c4cc(C(=O)NC)c(F)cc43)CC2)cc1` [Example 9, 1-[2-(4-ethylphenyl)-2-oxoethyl]-4-{6-fluoro-5-[(methylamino)carbonyl]-2-oxo-2,3-dihydro-1H-benzimidazol-1-yl}piperidinium chloride] to `O=C(CN1CCC(n2c(=O)[nH]c3cc(-c4noc(=O)[nH]4)ccc32)CC1)c1ccc(Cl)cc1` [Example 37, 1-{1-[2-(4-chlorophenyl)-2-oxoethyl]piperidin-4-yl}-5-(5-oxo-4,5-dihydro-1,2,4-oxadiazol-3-yl)-1,3-dihydro-2H-benzimidazol-2-one], the IC50 falls from 6.2 nM to 1.68 nM (3.7-fold).

`CNC(=O)c1cc2c(cc1F)N(C1CCN(CC(=O)N3CCC(C)(C)CC3)CC1)C(=O)C2` [Example 22, 1-[2-(4,4-dimethylpiperidin-1-yl)-2-oxoethyl]-4-{6-fluoro-5-[(methylamino)carbonyl]-2-oxo-2,3-dihydro-1H-indol-1-yl}piperidinium chloride] and `CNC(=O)c1cc2c(cc1F)N(C1CCN(CC(=O)N3C[C@H]4CCC[C@H]4C3)CC1)C(=O)C2` [Example 21, 4-{6-fluoro-5-[(methylamino)carbonyl]-2-oxo-2,3-dihydro-1H-indol-1-yl}-1-{2-[(3aR,6aS)-hexahydrocyclopenta[c]pyrrol-2(1H)-yl]-2-oxoethyl}piperidinium chloride] are within 1.5-fold of each other in IC50: 10.6 nM for the first, 14.6 nM for the second.

For `CNC(=O)c1ccc2c(c1)CC(=O)N2C1CCN(CC(=O)N2CCC(C)(OC)CC2)CC1` [Example 19, 1-[2-(4-methoxy-4-methylpiperidin-1-yl)-2-oxoethyl]-4-{5-[(methylamino)carbonyl]-2-oxo-2,3-dihydro-1H-indol-1-yl}piperidinium chloride], the IC50 was 18.7 nM.

same assay, conditions: microsomes of HEK 293 LCB2 cells, 3H-serine and palmitoyl CoA, phospholipid coated flashplate, 18-24 hours at room temperature; read-out: SPTISF IC50

`CNC(=O)c1cc2[nH]c(=O)n(C3CCN(CC(=O)C4(C)CCCCC4)CC3)c2cc1F` [Example 17, 6-fluoro-N-methyl-1-{1-[2-(1-methylcyclohexyl)-2-oxoethyl]piperidin-4-yl}-2-oxo-2,3-dihydro-1H-benzimidazole-5-carboxamide] and `CNC(=O)c1cc2[nH]c(=O)n(C3CCN(CC(=O)N4CCC(C)(C)CC4)CC3)c2cc1F` [Example 26, 1-[2-(4,4-dimethylpiperidin-1-yl)-2-oxoethyl]-4-{6-fluoro-5-[(methylamino)carbonyl]-2-oxo-2,3-dihydro-1H-benzimidazol-1-yl}piperidinium chloride] are within 1.5-fold of each other in IC50: 7.14 nM for the first, 7.5 nM for the second.

`CNC(=O)c1cc2[nH]c(=O)n(C3CCN(CC(=O)C4CCC(F)(F)CC4)CC3)c2cc1F` [Example 12, 1-{1-[2-(4,4-difluorocyclohexyl)-2-oxoethyl]piperidin-4-yl}-6-fluoro-N-methyl-2-oxo-2,3-dihydro-1H-benzimidazole-5-carboxamide] and `CNC(=O)c1cc2[nH]c(=O)n(C3CCN(CC(=O)C4CCC(C)CC4)CC3)c2cc1F` (stereo not shown) [Example 13, 6-fluoro-N-methyl-1-{1-[2-(4-methylcyclohexyl)-2-oxoethyl]piperidin-4-yl}-2-oxo-2,3-dihydro-1H-benzimidazole-5-carboxamide] are within 1.5-fold of each other in IC50: 5.3 nM for the first, 6 nM for the second.

`CNC(=O)c1cc2[nH]c(=O)n(C3CCN(CC(=O)N4CC5CCC(CC5)C4)CC3)c2cc1F` [Example 30, 1-{1-[2-(3-azabicyclo[3.2.2]non-3-yl)-2-oxoethyl]piperidin-4-yl}-6-fluoro-N-methyl-2-oxo-2,3-dihydro-1H-benzimidazole-5-carboxamide] and `CNC(=O)c1cc2[nH]c(=O)n(C3CCN(CC(=O)N4C[C@H]5CCC[C@H]5C4)CC3)c2cc1F` [Example 31, 6-fluoro-1-(1-{2-[(3aR,6aS)-hexahydrocyclopenta[c]pyrrol-2(1H)-yl]-2-oxoethyl}piperidin-4-yl)-N-methyl-2-oxo-2,3-dihydro-1H-benzimidazole-5-carboxamide] are within 1.5-fold of each other in IC50: 14.5 nM for the first, 14.7 nM for the second.

Going from `CCC1(C)CCN(C(=O)CN2CCC(n3c(=O)[nH]c4cc(C(=O)NC)c(F)cc43)CC2)CC1` [Example 27, 1-{1-[2-(4-ethyl-4-methylpiperidin-1-yl)-2-oxoethyl]piperidin-4-yl}-6-fluoro-N-methyl-2-oxo-2,3-dihydro-1H-benzimidazole-5-carboxamide] to `CNC(=O)c1cc2[nH]c(=O)n(C3CCN(CC(=O)N4CCC5(CC4)CC5)CC3)c2cc1F` [Example 28, 1-{1-[2-(6-azaspiro[2.5]oct-6-yl)-2-oxoethyl]piperidin-4-yl}-6-fluoro-N-methyl-2-oxo-2,3-dihydro-1H-benzimidazole-5-carboxamide], the IC50 rises from 6 nM to 12.9 nM (2.1-fold). The first is the more potent here.

First: CC1(C(=O)CN2CCC(n3c(=O)[nH]c4cc(S(C)(=O)=O)ccc43)CC2)CCCCC1 [Example 48, 1-{1-[2-(1-methylcyclohexyl)-2-oxoethyl]piperidin-4-yl}-5-(methylsulfonyl)-1,3-dihydro-2H-benzimidazol-2-one]
Second: CC1(C)CCN(C(=O)CN2CCC(n3c(=O)[nH]c4cc(S(C)(=O)=O)ccc43)CC2)CC1 [Example 39, 1-{1-[2-(4,4-dimethylpiperidin-1-yl)-2-oxoethyl]piperidin-4-yl}-5-(methylsulfonyl)-1,3-dihydro-2H-benzimidazol-2-one]
The IC50 of the first is 92-fold higher: 4400 nM for the first, 47.9 nM for the second.

First: CNC(=O)c1cc2[nH]c(=O)n(C3CCN(CC(=O)C4CCC(C(F)(F)F)CC4)CC3)c2cc1F (stereo not shown) [Example 15, 6-fluoro-N-methyl-2-oxo-1-(1-{2-oxo-2-[4(trifluoromethyl)cyclohexyl]ethyl}piperidin-4-yl)-2,3-dihydro-1H-benzimidazole-5-carboxamide]
Second: CC(C)(C)C1CCC(C(=O)CN2CCC(n3c(=O)[nH]c4cc(S(C)(=O)=O)ccc43)CC2)CC1 (stereo not shown) [Example 45, 1-{1-[2-(4-tert-butylcyclohexyl)-2-oxoethyl]piperidin-4-yl}-5-(methylsulfonyl)-1,3-dihydro-2H-benzimidazol-2-one]
The IC50 of the first is 35-fold lower: 9.5 nM for the first, 333 nM for the second. The first is the more potent here.

Compared with `COC1(C)CCN(C(=O)CN2CCC(n3c(=O)[nH]c4cc(C(C)=O)ccc43)CC2)CC1` [Example 55, 5-acetyl-1-{1-[2-(4-methoxy-4-methylpiperidin-1-yl)-2-oxoethyl]piperidin-4-yl}-1,3-dihydro-2H-benzimidazol-2-one; HCl salt], `COC1(C)CCC(C(=O)CN2CCC(n3c(=O)[nH]c4cc(S(C)(=O)=O)ccc43)CC2)CC1` (stereo not shown) [Example 47, 1-{1-[2-(4-methoxy-4-methylcyclohexyl)-2-oxoethyl]piperidin-4-yl}-5-(methylsulfonyl)-1,3-dihydro-2H-benzimidazol-2-one] is 7.2-fold higher in IC50: 71 nM for the first, 508 nM for the second. The first is the more potent here.

Compared with `COC1CCC(C(=O)CN2CCC(n3c(=O)[nH]c4cc(S(C)(=O)=O)ccc43)CC2)CC1` (stereo not shown) [Example 43, 1-{1-[2-(4-methoxycyclohexyl)-2-oxoethyl]piperidin-4-yl}-5-(methylsulfonyl)-1,3-dihydro-2H-benzimidazol-2-one], `CC1CCC(C(=O)CN2CCC(n3c(=O)[nH]c4cc(S(C)(=O)=O)ccc43)CC2)CC1` (stereo not shown) [Example 42, 1-{1-[2-(4-methylcyclohexyl)-2-oxoethyl]piperidin-4-yl}-5-(methylsulfonyl)-1,3-dihydro-2H-benzimidazol-2-one] is 5.1-fold lower in IC50: 301 nM for the first, 59 nM for the second. The second is the more potent here.

`CNC(=O)c1cc2[nH]c(=O)n(C3CC4CCC(C3)N4CC(=O)N3CCC(C)(OC)CC3)c2cc1F` (stereo not shown) [Example 49, 6-fluoro-1-{8-[2-(4-methoxy-4-methylpiperidin-1-yl)-2-oxoethyl]-8-azabicyclo[3.2.1]oct-3-yl}-N-methyl-2-oxo-2,3-dihydro-1H-benzimidazole-5-carboxamide trifluloroacetate] was tested, and the IC50 was 165 nM.
